Twelve compounds from patent publication US12227501B2, “3-amino-2-[2-(acylamino)pyridin-4-yl]-1,5,6,7-tetrahydro-4h-pyrrolo[3,2-c]pyridin-4-one as CSNK1 inhibitors” (Bayer Aktiengesellschaft, priority 2019, dated 2025) can be followed below.

Holding throughout (format): biochemical
The target of test [1] is T1, human CSNK1A1 (Homo sapiens (Human), UniProt P48729). The experiment in a line: CSNK1A1 High ATP Assay (ADP-Glo, 1 mM ATP). The following applies: read-out: CSNK1A1 high ATP assay IC50 [mol/l] (median). The method, boiled down: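 Kinase activity taken as ADP generated, quantified by ADP-Glo luminescence after 1 h ATP depletion and 1 h detection at 22 °C. Enzyme is GST–full-length human CSNK1A1 (insect cell-expressed), pre-bound to compound for 15 min, with phosphopeptide substrate and 1 mM ATP.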
(In ADP-Glo the light output rises with the ADP produced.)

Test [2] addresses T1, human CSNK1A1. The experiment in a line: CSNK1A1 Assay 2 (ADP-Glo, 1 μM ATP). The following applies: substrate biotin-Ahx-KRRRAL-pS-VASLPGL, read-out: CSNK1A1 Assay 2 IC50 [mol/l] (median). An outline of the steps: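 Full-length human CSNK1A1 as an N-terminal GST fusion (baculovirus/insect cells) with biotinylated peptide substrate biotin-Ahx-KRRRAL-pS-VASLPGL and 1 μM ATP, in HEPES pH 7.5 buffer. Compounds were pre-incubated with enzyme (~0.0375 ng/μL) for 15 min at 22 °C. Generated ADP was read by ADP-Glo luminescence as the activity measure.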

Test [3] has as its target wild-type Epidermal Growth Factor Receptor (EGFR) (Homo sapiens (Human), UniProt P00533). Description: WT-EGFR Kinase Assay (TR-FRET, 2 mM ATP). (In general: TR-FRET usually uses a lanthanide donor and a delayed reading to cut background.)
In test [4] the target is human CSNK1D (Homo sapiens (Human), UniProt P48730). The experiment in a line: CSNK1D Assay (ADP-Glo, 1 μM ATP). The following applies: read-out: CSNK1D IC50 [mol/l] (median). An outline of the steps: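 Activity is read as ADP produced, by ADP-Glo luminescence after 1 h steps at 22 °C. The reaction uses 1 μM ATP, a biotinylated peptide and insect-cell-expressed GST–CSNK1D (about 0.5 ng/μL) in pH 7.5 HEPES buffer, with 15 min compound–enzyme preincubation.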

The mark [5] stands for this setting: EGFR Wildtyp- 2 mM ATP IC50 [mol/l] (median).
The mark [6] stands for this setting: read-out: EGFR Wildtyp- 2 mM ATP IC50 [mol/l] (median).

Molecules are shown by their SMILES. Where two headings read alike, the source gives them in different places.

Sequence of human CSNK1D (P48730 whole entry): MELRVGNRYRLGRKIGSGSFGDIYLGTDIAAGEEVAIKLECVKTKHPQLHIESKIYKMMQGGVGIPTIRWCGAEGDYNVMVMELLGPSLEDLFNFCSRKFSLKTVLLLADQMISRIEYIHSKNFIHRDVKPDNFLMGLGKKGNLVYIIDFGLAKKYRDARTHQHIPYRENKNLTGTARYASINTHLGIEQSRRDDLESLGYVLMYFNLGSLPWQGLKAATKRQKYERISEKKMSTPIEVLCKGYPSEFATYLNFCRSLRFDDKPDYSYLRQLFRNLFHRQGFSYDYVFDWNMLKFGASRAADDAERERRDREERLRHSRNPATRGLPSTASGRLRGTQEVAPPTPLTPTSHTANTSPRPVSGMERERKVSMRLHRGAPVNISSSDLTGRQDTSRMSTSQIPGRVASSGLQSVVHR
T1 sequence (P48729 whole entry): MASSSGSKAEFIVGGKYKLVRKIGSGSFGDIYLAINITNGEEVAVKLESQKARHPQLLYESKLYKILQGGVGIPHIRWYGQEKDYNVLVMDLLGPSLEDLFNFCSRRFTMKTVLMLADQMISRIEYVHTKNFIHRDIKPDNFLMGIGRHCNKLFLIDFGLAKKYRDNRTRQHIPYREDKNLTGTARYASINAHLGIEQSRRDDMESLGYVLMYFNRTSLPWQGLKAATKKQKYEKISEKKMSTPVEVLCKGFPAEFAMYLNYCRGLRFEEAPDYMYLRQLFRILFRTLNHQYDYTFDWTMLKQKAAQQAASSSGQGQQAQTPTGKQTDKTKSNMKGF
Sequence of wild-type Epidermal Growth Factor Receptor (EGFR) (P00533 669-1210): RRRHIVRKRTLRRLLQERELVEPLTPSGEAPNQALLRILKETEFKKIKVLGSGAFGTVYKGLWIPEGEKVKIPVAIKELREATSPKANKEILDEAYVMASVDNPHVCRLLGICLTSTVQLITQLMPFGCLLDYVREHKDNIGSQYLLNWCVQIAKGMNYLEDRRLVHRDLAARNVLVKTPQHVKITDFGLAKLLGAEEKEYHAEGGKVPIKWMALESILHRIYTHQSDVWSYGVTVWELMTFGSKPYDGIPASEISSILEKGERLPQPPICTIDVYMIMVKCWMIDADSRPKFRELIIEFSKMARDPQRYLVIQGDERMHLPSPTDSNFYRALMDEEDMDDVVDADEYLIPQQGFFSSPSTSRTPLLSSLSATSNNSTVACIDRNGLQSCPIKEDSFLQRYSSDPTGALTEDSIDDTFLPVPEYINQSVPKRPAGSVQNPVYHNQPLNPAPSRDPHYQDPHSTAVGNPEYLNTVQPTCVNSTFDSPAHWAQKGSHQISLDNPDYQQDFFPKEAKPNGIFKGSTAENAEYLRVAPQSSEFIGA

For the compound `CC(C(=O)Nc1cc(-c2[nH]c3c(c2Nc2ccccc2)C(=O)N(C)C(C)C3)ccn1)c1ccc(F)cc1` (single isomer, unassigned; (-)) [Example 95, (−)-N-{4-[3-anilino-5,6-dimethyl-4-oxo-4,5,6,7-tetrahydro-1H-pyrrolo[3,2-c]pyridin-2-yl]pyridin-2-yl}-2-(4-fluorophenyl)propanamide], the IC50 worked out at 2460 nM in test [1], 46.2 nM in test [2], 6310 nM in test [3] (setting [5]) and 45.3 nM in test [4].
Turning to `CC1Cc2[nH]c(-c3ccnc(NC(=O)Cc4ccncc4)c3)c(Nc3ccccc3)c2C(=O)N1C` (single isomer, unassigned; (-)) [Example 99, (−)-N-{4-[(6S*)-3-anilino-5,6-dimethyl-4-oxo-4,5,6,7-tetrahydro-1H-pyrrolo[3,2-c]pyridin-2-yl]pyridin-2-yl}-2-(pyridin-4-yl)acetamide], the IC50 was determined as 25.9 nM in test [1], 3.78 nM in test [2], 329 nM in test [3] (setting [5]) and 5.1 nM in test [4].
Take `CC1Cc2[nH]c(-c3ccnc(NC(=O)Cc4ccc(F)cc4)c3)c(Nc3ccccc3F)c2C(=O)N1C` (single isomer, unassigned; (-)) [Example 102, (−)-N-{4-[3-(2-fluoroanilino)-5,6-dimethyl-4-oxo-4,5,6,7-tetrahydro-1H-pyrrolo[3,2-c]pyridin-2-yl]pyridin-2-yl}-2-(4-fluorophenyl)acetamide]: the IC50 in test [1] was 51 nM; in test [2], 3.6 nM; in test [3] (setting [5]) it was 2330 nM; in test [4], 7.21 nM.
On to `CC1Cc2[nH]c(-c3ccnc(NC(=O)C(CC(F)F)c4ccc(F)cc4)c3)c(Nc3ccccc3F)c2C(=O)N1C` (single isomer, unassigned; (-)) [Example 104, (−)-4,4-difluoro-N-{4-[3-(2-fluoroanilino)-5,6-dimethyl-4-oxo-4,5,6,7-tetrahydro-1H-pyrrolo[3,2-c]pyridin-2-yl]pyridin-2-yl}-2-(4-fluorophenyl)butanamide], for which the IC50 in test [1] is 4490 nM; in test [2], 67.9 nM; in test [3] (setting [6]), more than 20000 nM; in test [4] it was 60.5 nM.
On the same counts, the results for `CC1Cc2[nH]c(-c3ccnc(NC(=O)C(CC(F)F)c4ccc(F)cc4)c3)c(Nc3ccccc3F)c2C(=O)N1C` (single isomer, unassigned; (-)) [Example 106, (−)-(2RS)-4,4-difluoro-N-{4-[(6R*)-3-(2-fluoroanilino)-5,6-dimethyl-4-oxo-4,5,6,7-tetrahydro-1H-pyrrolo[3,2-c]pyridin-2-yl]pyridin-2-yl}-2-(4-fluorophenyl)butanamide] are 56.2 nM, 17.8 nM, more than 20000 nM and 22.3 nM.
On to `CC1Cc2[nH]c(-c3ccnc(NC(=O)C(CC(F)F)c4ccc(F)cc4)c3)c(Nc3ccccc3F)c2C(=O)N1C` (single isomer, unassigned; (-)) [Example 107, (−)-4,4-difluoro-N-{4-[3-(2-fluoroanilino)-5,6-dimethyl-4-oxo-4,5,6,7-tetrahydro-1H-pyrrolo[3,2-c]pyridin-2-yl]pyridin-2-yl}-2-(4-fluorophenyl)butanamide], for which the IC50 was 3160 nM in test [1], 45.7 nM in test [2], more than 20000 nM in test [3] (setting [6]) and 59.2 nM in test [4].
For `CC1(C)Cc2[nH]c(-c3ccnc(NC(=O)C(CC(F)F)c4ccc(F)cc4)c3)c(Nc3cccc(F)c3Cl)c2C(=O)N1` (single isomer, unassigned; (-)) [Example 110, (−)-N-{4-[3-(2-chloro-3-fluoroanilino)-6,6-dimethyl-4-oxo-4,5,6,7-tetrahydro-1H-pyrrolo[3,2-c]pyridin-2-yl]pyridin-2-yl}-4,4-difluoro-2-(4-fluorophenyl)butanamide], the IC50 in test [1] is more than 20000 nM; in test [2] it was 262 nM; in test [3] (setting [5]) it was 4130 nM; in test [4], 249 nM.
On the same counts, the results for `CC1(C)Cc2[nH]c(-c3ccnc(NC(=O)C(CC(F)F)c4ccc(F)cc4)c3)c(Nc3cccc(F)c3)c2C(=O)N1` (single isomer, unassigned; enantiomer 1) [Example 120, 4,4-difluoro-N-{4-[3-(3-fluoroanilino)-6,6-dimethyl-4-oxo-4,5,6,7-tetrahydro-1H-pyrrolo[3,2-c]pyridin-2-yl]pyridin-2-yl}-2-(4-fluorophenyl)butanamide (Enantiomer 1)] are 477 nM, 9.64 nM, more than 20000 nM and 11 nM.
On the same counts, the results for `O=C1NC2(CCC2)Cc2[nH]c(-c3ccnc(NC(=O)C(CC(F)F)c4ccc(F)cc4)c3)c(Nc3cccc(F)c3Cl)c21` (single isomer, unassigned; enantiomer 1) [Example 124, (−)-N-{4-[3′-(2-chloro-3-fluoroanilino)-4′-oxo-1′,4′,5′,7′-tetrahydrospiro[cyclobutane-1,6′-pyrrolo[3,2-c]pyridin]-2′-yl]pyridin-2-yl}-4,4-difluoro-2-(4-fluorophenyl)butanamide (Enantiomer 1)] are more than 5710 nM, 74.6 nM, more than 20000 nM and 58.7 nM.
For `CC1(C)Cc2[nH]c(-c3ccnc(NC(=O)C(CC(F)F)c4ccc(F)cc4)c3)c(Nc3cccc(F)n3)c2C(=O)N1` (single isomer, unassigned; enantiomer 1) [Example 129, 4,4-difluoro-2-(4-fluorophenyl)-N-(4-{3-[(6-fluoropyridin-2-yl)amino]-6,6-dimethyl-4-oxo-4,5,6,7-tetrahydro-1H-pyrrolo[3,2-c]pyridin-2-yl}pyridin-2-yl)butanamide (Enantiomer 1)] the same measures were 6.37 nM, 3.39 nM, more than 20000 nM and 5.4 nM.
For the compound `Cc1ccccc1Nc1c(-c2ccnc(NC(=O)C(C)c3ccc(F)cc3)c2)[nH]c2c1C(=O)NC(C)(C)C2` (single isomer, unassigned; enantiomer 1) [Example 133, (−)-N-{4-[6,6-dimethyl-3-(2-methylanilino)-4-oxo-4,5,6,7-tetrahydro-1H-pyrrolo[3,2-c]pyridin-2-yl]pyridin-2-yl}-2-(4-fluorophenyl)propanamide (Enantiomer 1)], the IC50 in test [1] was more than 5710 nM; in test [2], 197 nM; in test [3] (setting [5]), 405 nM; in test [4] it was 280 nM.
On the same counts, the results for `Cc1ccccc1Nc1c(-c2ccnc(NC(=O)C(CC(F)F)c3ccc(F)cc3)c2)[nH]c2c1C(=O)NC(C)(C)C2` (single isomer, unassigned; enantiomer 1) [Example 136, N-{4-[6,6-dimethyl-3-(2-methylanilino)-4-oxo-4,5,6,7-tetrahydro-1H-pyrrolo[3,2-c]pyridin-2-yl]pyridin-2-yl}-4,4-difluoro-2-(4-fluorophenyl)butanamide (Enantiomer 1)] are 45.6 nM, 13.7 nM, more than 20000 nM and 45.3 nM.
